Assay results from patent US20100240605A1, “NOVEL IMMUNOTHERAPY STRATEGY” (priority 2007, published 2010).
“Also recorded” adds a separate entry of the source. Where two headings read alike, the source gives them in different places.

Tests used:
[1] = target: human monocyte chemotactic protein-1/CCL2 (MCP-1/CCL2) (Homo sapiens, UniProt P13500); experiment: Chemokine binding in solution, gel filtration chromatography; conditions: 500 ng MCP-1/CCL2; free MCP-1 eluted at low molecular weight
Method: (§1) COAM alone, mGCP-2 or COAM incubated in the presence of mGCP-2 were separated by classical gel filtration chromatography. The elution fractions were collected and the presence of mGCP-2 was determined in the elution fractions by ELISA specific for mGCP-2. […] Since COAM itself is a mixture of polymers with different lengths, we fractioned first COAM in three fractions and then repeated the mGCP-2 binding and chromatographic analysis (as described above) with the high molecular weight COAM (high MW COAM) and mGCP-2. […] This is illustrated in FIG. 2.
In a third set, 500 ng human monocyte chemotactic protein-1/CCL2 (MCP-1/CCL2) was tested. Again, free MCP-1 eluted at low molecular weight, compatible with the relative size of MCP-1. […] This is again compatible with its binding to COAM

[2] = system: peritoneal leukocytes; conditions: for neutrophils among peritoneal cells: 2 mg unfractionated COAM i.p.
Method: In a first set of in vivo experiments, 2 mg of COAM (unfractionated, solution of 2 mg in 100 μl sterile pyrogen-free 0.9% NaCl) was injected intraperitoneally per mouse and leukocytes were counted and defined at different times after injection of groups of 3-4 mice.

[3] = system: various human and mouse cell lines; experiment: Toxicity of the test solution on cell lines; type: cell-based; conditions: test solution (2 mg COAM in 100 μl 0.9% NaCl)
[4] = target: T1, synthetic human IP-10/CXCL10 (Homo sapiens, UniProt P02778); experiment: Chemokine binding in solution, gel filtration chromatography; conditions: no separate IP-10 result printed
T1 sequence (P02778 22-98): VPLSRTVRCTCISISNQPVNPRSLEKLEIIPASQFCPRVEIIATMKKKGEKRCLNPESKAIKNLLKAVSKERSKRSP
Source text: In a fourth example, we used synthetic human IP-10/CXCL10.

[5] = target: T2, human interleukin-8/CXCL8 (IL-8/CXCL8) (Homo sapiens, UniProt P10145); experiment: as above; conditions: 500 ng IL-8/CXCL8; free IL-8 eluted at low molecular masses
T2 sequence (P10145 21-99): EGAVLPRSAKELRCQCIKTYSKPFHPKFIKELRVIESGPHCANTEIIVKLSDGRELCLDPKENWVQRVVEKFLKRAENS
Method: as §1
In a second set of experiments human 500 ng interleukin-8/CXCL8 (IL-8/CXCL8) was tested.

[6] = system: B16-F1 mouse melanoma tumors; experiment: Syngeneic B16-F1 melanoma tumors in C57BI6 mice, intratumoral injection; type: in vivo; conditions: for effect on tumor expansion: single intratumoral dose of 100 μg at day 1 post tumor inoculation, COAM, heparin, saline compared
Method: We used B16-F1 mouse melanoma tumors in C57BI6 mice. 0.5 million tumor cells were injected intradermally on day 0 as known in the art. In one experiment, control mice were injected with saline on days 1, 8 and 15. The treated group COAM d1 was injected intratumorally with a single dose of 100 μg COAM on day1. The treated group COAM d1, d8, d15 was injected with 100 μg COAM three times intratumorally. […] In some cases the tumor ulcerated.
At day 18, all tumors were excised and their volumes and weights were measured.
In particular, in the FIGS. 5 A, B, C and D, we used heparin as an additional control. […] Heparin is a polyanion and binds chemokines and mimics heparin sulphate proteoglycans. The experiment was repeated as above with a single intratumoral dose of 100 μg COAM, 100 μg heparin and saline control at day 1 post tumor inoculation.

[7] = system: CD11b+Gr-1+ cells (neutrophils); experiment: EAE model: neutrophil mobilization to the peritoneal cavity and infiltration of spinal cord and brain; type: in vivo, mice; conditions: for CD11b^+Gr-1^+ cells in the peritoneal cavity: 2 mg COAM i.p. on day 0 and 7
Method: FIG. 9: Mobilization of neutrophils into the peritoneal cavity in response to COAM. Mice were immunized with SCH in CFA and treated with COAM (2 mg) or saline on days 0 and 7. Peritoneal cells were collected on days 5, 9 and 14, or 16 post immunization. […] Data represent three individual experiments taken together; bars represent averages±standard error of the mean of seven or nine mice. (B) Flow cytometric analysis of peritoneal cells of control mice and COAM-treated mice. Cells were stained for the presence of CD11b using FITC-labeled antibodies, and of Gr-1 using PE-labeled antibodies. Numbers indicated on each graph represent percent CD11b^+Gr-1^+ cells. One representative analysis out of 9 is shown.
FIG. 10: Neutrophil infiltration in the spinal cord and brain of COAM-treated mice is reduced compared with saline-treated control mice. […] Data of 3 pooled experiments are shown. Histograms represent averages±SEM. (B) Flow cytometry of cells isolated from the spinal cord and brain on day 16 post immunization of mice treated with COAM (2 mg) or saline on days 0 and 7. Cells were stained for CD11b and Gr-1. Numbers indicated on each graph represent percent CD11b^+Gr-1^+ cells. Each plot represents a staining pattern of pooled cells from 3 mice. Results are representative of three independent experiments with similar results.
(§2) Experimental autoimmune encephalomyelitis was induced in mice (mice were immunized with SCH in CFA) and the groups were randomized. One group was treated with 2 mg COAM intraperitoneally on day 0 and day 7.
Mice were immunized with SCH in CFA on day 0 and treated i.p. with 2 mg COAM or saline on day 0 and 7. Cells were obtained from the peritoneal cavity of saline- and COAM-treated mice on day 5, 9 and 14, 15 or 16 after immunization. Cells were stained with anti-CD11b-FITC and anti-Gr-1-PE antibodies. The proportion of CD11b^+Gr-1^+ cells is shown. Results represent pooled data from 3 experiments and N indicates the total number of mice examined. *p<0.05 between COAM-treated and saline-treated mice (Mann-Whitney U-test).

[8] = system: Moloney Sarcoma Virus-induced tumor; conditions: IP administration; De Clercq et al. 1972; cited from earlier work
[9] = system: B16-F1 cells; experiment: B16 melanoma formation in immunocompromised SCID mice; type: in vivo; conditions: 500 000 B16-F1 cells s.c. on day 0
Source text: We used a similar protocol as above in immunocompromised SCID mice. The SCID mice received s.c. 500 000 B16-F1 cells on day 0.

[10] = system: experimental autoimmune encephalomyelitis; experiment: EAE model: clinical course of active EAE; type: in vivo, SJL/J mice
Method: FIG. 11: The clinical course of active EAE is attenuated in COAM-treated mice. SJL/J mice were immunized subcutaneously with syngeneic spinal cord homogenate for induction of EAE. They were treated i.p. with 2 mg COAM (filled boxes) or saline (open boxes) on day 0 (A), day 8 (B) or days 0 and 7 (C) post immunization. The clinical course of EAE in these mice is shown as mean daily group score±sem. The disease parameters are given as an insert. Dead animals were scored 6 from the day of death until the end of the study. Arrows point to the days of COAM administration. *p<0.05; **p<0.01 for comparison with saline-treated group; Wilcoxon test or Chi-square test.
as §2
SJL/J mice were immunized subcutaneously with syngeneic spinal cord homogenate for induction of EAE. They were treated i.p. with 2 mg COAM (filled boxes) or saline (open boxes) on day 0 (A), day 8 (B) or days 0 and 7 (C) post immunization. The clinical course of EAE in these mice is shown as mean daily group score±sem. The disease parameters are given as an insert. Dead animals were scored 6 from the day of death until the end of the study. […]

[11] = target: T3, mouse granulocyte chemotactic protein-2 (mGCP-2) (Mus musculus, UniProt P50228); experiment: Chemokine binding in solution, gel filtration chromatography with ELISA of fractions
T3 sequence (P50228 41-132): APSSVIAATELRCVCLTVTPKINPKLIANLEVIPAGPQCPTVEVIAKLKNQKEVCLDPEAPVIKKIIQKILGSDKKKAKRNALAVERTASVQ
Method: The COAM preparation was incubated with 50 nanogram mouse GCP-2 and the mixture was analysed by gel filtration chromatography (lower figure) and the presence of GCP-2 in the column fractions was analysed with a sensitive ELISA for mouse GCP-2.
as §1

[12] = EAE mice, 2 mg COAM i.p. on days 0 and 7

human monocyte chemotactic protein-1/CCL2 (MCP-1/CCL2), sequence (P13500 24-99): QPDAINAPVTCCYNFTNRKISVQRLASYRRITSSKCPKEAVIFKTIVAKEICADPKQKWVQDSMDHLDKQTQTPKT

chlorite-oxidized oxyamylose [COAM]
elution of MCP-1 in the presence of COAM [1]: eluted at the position of the high molecular weight of COAM | survival and morbidity of the mice ([2]; 2 mg unfractionated COAM i.p. per mouse): survived without apparent morbidity | peritoneal cells ([2]; 2 mg unfractionated COAM i.p. per mouse, within 2 hours, control 126.000 cells): 630.000 cells | neutrophils among peritoneal cells ([2]; at 4 h): 64.1% | neutrophils among peritoneal cells ([2]; at 8 h): 70.3% | neutrophils among peritoneal cells ([2]; within 2 hours, control 2.2%): 18.1% | toxic effect on cell lines [3]: not any toxic effect | chemokine binding, conclusion from results with mGCP-2, IL-8, MCP-1, IP-10 [4]: general chemokine-binding factor | elution of interleukin-8 in the presence of COAM [5]: coeluted with COAM at high relative molecular weight | additional effect of three injections instead of one injection ([6]; 100 μg intratumorally d1, d8, d15 versus d1 only): No additional effect | overall mean tumor volume and weights as function of time ([6]; COAM-treated groups (100 μg intratumorally d1, or d1, d8, d15) versus saline): significantly reduced | tumor burden with exclusion of ulcerated open tumors ([6]; COAM-treated groups versus saline): significant effect on tumor burden | spleen weight (readout of systemic inflammation) ([6]; after intratumoral injection, compared with saline and heparin): no overt splenomegaly | tumor volume ([6]; single COAM-treated group (COAM d1 only) versus saline, several experiments combined, p<0.015): significantly reduced | tumor weight ([6]; single COAM-treated group (COAM d1 only) versus saline, several experiments combined, p<0.025): significantly reduced | tumor growth ([6]; single dose of 100 μg COAM intratumorally at Day 1 versus saline, 6 COAM-treated and 5 control mice): significant reduction of tumor growth | effect on tumor expansion [6]: lasting and significant effect | tumor volume ([6]; triple treated COAM versus control group, p<0.030): significantly reduced | tumor weight ([6]; triple treated COAM versus control group, p<0.05): significantly reduced | mast cell population in the peritoneal cavity [7, 12]: reduced; also recorded: decrease in mast cells | neutrophil recruitment to the peritoneal cavity [7, 12]: increased neutrophil recruitment; also recorded: specific infiltration of neutrophils | CD11b^+Gr-1^+ cells in the peritoneal cavity ([7]; day 5 p.i., N = 8): 322.78 ± 79.43 (N = 8) ×10^4 | CD11b^+Gr-1^+ cells in the peritoneal cavity ([7]; day 9 p.i., N = 9, p<0.05 versus saline): 1210.85 ± 272.05 (N = 9) * ×10^4 | CD11b^+Gr-1^+ cells in the peritoneal cavity ([7]; day 14-16 p.i., N = 5, p<0.05 versus saline): 276.66 ± 67.29 (N = 5) * ×10^4 | neutrophil infiltration into spinal cord and brain ([7]; day 16 post immunization, 2 mg COAM i.p. on days 0 and 7, versus saline): reduced; also recorded: lower percentage of neutrophils | regression of tumors [8]: not show a regression of tumors | protection against tumors in an immunocompromised host [9]: protects an immunocompromised host against tumors | clinical course of active EAE (mean daily group score) ([10]; 2 mg COAM i.p. on day 0, day 8 or days 0 and 7 post immunization, versus saline): attenuated | protection against severe EAE ([10]; two injections of COAM): protect a mammalian host against severe EAE | elution position of mGCP-2 together with COAM (molecular weight range) ([11]; COAM incubated with mGCP-2, mGCP-2 alone eluted at about 10 kilodaltons): > 50 kilodaltons | binding of mGCP-2 ([11]; in solution, gel filtration, ELISA for mouse GCP-2): GCP-2 binds to COAM in solution

heparin [reference compound]
effect on tumor expansion [6]: some effect in the early phase
